Where a name gives a salt, the structure may show the parent alone. Where only a bound is given, the exact number is not on record here.

This experiment has as its target T1, human GlyT1c transporter (Homo sapiens, UniProt P48067).
T1 construct: expressed in transfected cells; host or cells: recombinant CHO cells (membranes); the uptake assay names the line hGlyT1c_5_CHO
T1 sequence (P48067 1-706): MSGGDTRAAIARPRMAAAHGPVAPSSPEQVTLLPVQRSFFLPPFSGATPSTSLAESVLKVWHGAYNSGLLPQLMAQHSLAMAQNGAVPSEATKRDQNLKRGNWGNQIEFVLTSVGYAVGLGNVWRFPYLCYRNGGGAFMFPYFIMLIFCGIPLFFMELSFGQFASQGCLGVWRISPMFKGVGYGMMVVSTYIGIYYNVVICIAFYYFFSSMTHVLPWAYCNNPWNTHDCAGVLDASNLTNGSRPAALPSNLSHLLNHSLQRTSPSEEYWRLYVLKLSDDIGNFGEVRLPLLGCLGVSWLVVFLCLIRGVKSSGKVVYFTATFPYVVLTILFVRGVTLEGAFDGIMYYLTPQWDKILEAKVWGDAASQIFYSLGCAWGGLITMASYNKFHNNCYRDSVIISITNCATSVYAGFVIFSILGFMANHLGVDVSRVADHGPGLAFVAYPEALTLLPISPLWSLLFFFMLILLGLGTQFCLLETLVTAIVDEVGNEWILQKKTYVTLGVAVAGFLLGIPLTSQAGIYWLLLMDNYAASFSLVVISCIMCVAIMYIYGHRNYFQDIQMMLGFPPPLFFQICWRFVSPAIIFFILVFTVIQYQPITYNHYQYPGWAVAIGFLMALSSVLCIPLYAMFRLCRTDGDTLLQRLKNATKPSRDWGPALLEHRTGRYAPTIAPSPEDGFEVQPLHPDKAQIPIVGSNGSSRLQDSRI
Kind of experiment: Radioligand binding assay using recombinant CHO cell membranes expressing human GlyT1. The note with it: read-out: radioligand binding Kiapp. The protocol:
2. Radioligand Binding Assays Using Recombinant CHO Cell Membranes Expressing Human GlyT1:
Radioligand binding to human GlyT1c transporter-expressing membranes was determined as described in Mezler et al., Molecular Pharmacology 74:1705-1715, 2008.
With `COc1ccc2c(c1)C(Cc1ccccc1)NCCC2` (stereo not shown) [Example 1, 1-Benzyl-8-methoxy-2,3,4,5-tetrahydro-1H-benzo[c]azepine], the Ki is more than 10000 nM.

As for `Cn1cnc(S(=O)(=O)NCCOc2ccc3c(c2)C(Cc2ccccc2)NCCC3)c1` (stereo not shown) [Example 2, N-(2-(1-Benzyl-2,3,4,5-tetrahydro-1H-benzo[c]azepin-8-yloxy)ethyl)-1-methyl-1H-imidazole-4-sulfonamide], the Ki is not above 100 nM.

Consider `Cn1cc(S(=O)(=O)NCCOc2ccc3c(c2)C(Cc2ccccc2)NCCC3)cn1` (stereo not shown) [Example 3, N-(2-(1-Benzyl-2,3,4,5-tetrahydro-1H-benzo[c]azepin-8-yloxy)ethyl)-1-methyl-1H-pyrazole-4-sulfonamide], for which the Ki was not above 10 nM.

Take `O=S(=O)(CC1CC1)NCCOc1ccc2c(c1)C(Cc1ccccc1)NCCC2` (stereo not shown) [Example 4, N-(2-(1-benzyl-2,3,4,5-tetrahydro-1H-benzo[c]azepin-8-yloxy)ethyl)-1-cyclopropylmethanesulfonamide]: the Ki was not above 100 nM.

For the compound `COc1ccc2c(c1)C(C1(c3ccc(Cl)cc3)CCC1)NCCO2` (stereo not shown) [Example 5, 5-(1-(4-Chlorophenyl)cyclobutyl)-7-methoxy-2,3,4,5-tetrahydrobenzo[f][1,4]oxazepine hydrochloride], the Ki was not above 10000 nM.

In the case of `CN1CCCc2ccc(OCCNS(=O)(=O)c3cn(C)cn3)cc2C1Cc1ccccc1` (stereo not shown) [Example 6, 1-Methyl-1H-imidazole-4-sulfonic acid [2-(1-benzyl-2-methyl-2,3,4,5-tetrahydro-1H-benzo[c]azepin-8-yloxy)-ethyl]-amide], the Ki is not above 10 nM.

For the compound `CN1CCCc2ccc(OCCNS(=O)(=O)c3cnn(C)c3)cc2C1Cc1ccccc1` (stereo not shown) [Example 7, 1-Methyl-1H-pyrazole-4-sulfonic acid [2-(1-benzyl-2-methyl-2,3,4,5-tetrahydro-1H-benzo[c]azepin-8-yloxy)-ethyl]amide], the Ki was not above 10 nM.

On to `CCCS(=O)(=O)NCCOc1ccc2c(c1)C(Cc1ccc(Cl)cc1)NCCC2` (stereo not shown) [Example 8, Propane-1-sulfonic acid {2-[1-(4-chlorobenzyl)-2,3,4,5-tetrahydro-1H-benzo[c]azepin-8-yloxy]-ethyl}-amide], for which the Ki was not above 1000 nM.

As to `CCS(=O)(=O)NCCOc1ccc2c(c1)C(Cc1ccc(Cl)cc1)NCCC2` (stereo not shown) [Example 9, Ethanesulfonic acid {2-[1-(4-chlorobenzyl)-2,3,4,5-tetrahydro-1H-benzo[c]azepin-8-yloxy]-ethyl}-amide], the Ki was not above 10000 nM.

Regarding `CCCS(=O)(=O)NCCOc1ccc2c(c1)C(Cc1ccccc1)NCCC2` (stereo not shown) [Example 10, Propane-1-sulfonic acid [2-(1-benzyl-2,3,4,5-tetrahydro-1H-benzo[c]azepin-8-yloxy)-ethyl]-amide], the Ki is not above 100 nM.

Turning to `CCS(=O)(=O)NCCOc1ccc2c(c1)C(Cc1ccccc1)NCCC2` (stereo not shown) [Example 11, Ethanesulfonic acid [2-(1-benzyl-2,3,4,5-tetrahydro-1H-benzo[c]azepin-8-yloxy)-ethyl]-amide], the Ki is not above 1000 nM.

Regarding `O=S(=O)(CC1CC1)NCCOc1ccc2c(c1)C(Cc1ccc(Cl)cc1)NCCC2` (stereo not shown) [Example 12, N-{2-[1-(4-Chlorobenzyl)-2,3,4,5-tetrahydro-1H-benzo[c]azepin-8-yloxy]-ethyl}-C-cyclopropyl-methanesulfonamide], the Ki was not above 1000 nM.

For `O=S(=O)(CC1CC1)NCCOc1ccc2c(c1)C(Cc1ccccc1)NCCC2` (stereo not shown) [Example 13, N-{2-[1-Benzyl-2,3,4,5-tetrahydro-1H-benzo[c]azepin-8-yloxy]-ethyl}-C-cyclopropyl-methanesulfonamide], the Ki is not above 100 nM.

`CCCS(=O)(=O)NCc1ccc2c(c1)C(Cc1ccc(Cl)cc1)NCCC2` (stereo not shown) [Example 14, Propane-1-sulfonic acid [1-(4-chloro-benzyl)-2,3,4,5-tetra-hydro-1H-benzo[c]azepin-8-ylmethyl]-amide]: the Ki was not above 1000 nM.

For the compound `O=S(=O)(CC1CC1)NCc1ccc2c(c1)C(Cc1ccc(Cl)cc1)NCCC2` (stereo not shown) [Example 15, N-[1-(4-Chloro-benzyl)-2,3,4,5-tetrahydro-1H-benzo[c]azepin-8-ylmethyl]-C-cyclopropyl-methanesulfonamide], the Ki was not above 10000 nM.

Turning to `CCS(=O)(=O)NCc1ccc2c(c1)C(Cc1ccc(Cl)cc1)NCCC2` (stereo not shown) [Example 16, Ethanesulfonic acid [1-(4-chloro-benzyl)-2,3,4,5-tetra-hydro-1H-benzo[c]azepin-8-ylmethyl]-amide], the Ki is not above 10000 nM.

As to `O=S(=O)(NCc1ccc2c(c1)C(Cc1ccc(Cl)cc1)NCCC2)C1CCC1` (stereo not shown) [Example 17, Cyclobutanesulfonic acid [1-(4-chloro-benzyl)-2,3,4,5-tetra-hydro-1H-benzo[c]azepin-8-ylmethyl]-amide], the Ki was not above 1000 nM.

As for `Cn1cnc(S(=O)(=O)NCc2ccc3c(c2)C(Cc2ccc(Cl)cc2)NCCC3)c1` (stereo not shown) [Example 18, 1-Methyl-1H-imidazole-4-sulfonic acid [1-(4-chloro-benzyl)-2,3,4,5-tetrahydro-1H-benzo-[c]azepin-8-ylmethyl]-amide], the Ki was not above 1000 nM.

Turning to `Cn1cc(S(=O)(=O)NCc2ccc3c(c2)C(Cc2ccc(Cl)cc2)NCCC3)cn1` (stereo not shown) [Example 19, 1-Methyl-1H-pyrazole-4-sulfonic acid [1-(4-chloro-benzyl)-2,3,4,5-tetrahydro-1H-benzo-[c]azepin-8-ylmethyl]-amide], the Ki is not above 100 nM.

On to `Cn1cnc(S(=O)(=O)NCCOc2ccc3c(c2)C(Cc2cccc(F)c2)NCCC3)c1` (stereo not shown) [Example 20, 1-Methyl-1H-imidazole-4-sulfonic acid {2-[1-(3-fluoro-benzyl)-2,3,4,5-tetrahydro-1H-benzo[c]azepin-8-yloxy]-ethyl}-amide], for which the Ki was not above 10 nM.

`Cn1cc(S(=O)(=O)NCCOc2ccc3c(c2)C(Cc2cccc(F)c2)NCCC3)cn1` (stereo not shown) [Example 21, 1-Methyl-1H-pyrazole-4-sulfonic acid {2-[1-(3-fluoro-benzyl)-2,3,4,5-tetrahydro-1H-benzo[c]azepin-8-yloxy]-ethyl}-amide]: the Ki was not above 10 nM.

Turning to `Cn1cnc(S(=O)(=O)NCc2ccc3c(c2)C(Cc2cccc(F)c2)NCCC3)c1` (stereo not shown) [Example 22, 1-Methyl-1H-imidazole-4-sulfonic acid [1-(3-fluoro-benzyl)-2,3,4,5-tetrahydro-1H-benzo[c]azepin-8-ylmethyl]-amide], the Ki is not above 10 nM.

With `CCCS(=O)(=O)NCCOc1ccc2c(c1)C(Cc1cccc(F)c1)NCCC2` (stereo not shown) [Example 23, Propane-1-sulfonic acid {2-[1-(3-fluoro-benzyl)-2,3,4,5-tetrahydro-1H-benzo[c]azepin-8-yloxy]-ethyl}-amide], the Ki is not above 100 nM.

In the case of `O=S(=O)(CC1CC1)NCCOc1ccc2c(c1)C(Cc1cccc(F)c1)NCCC2` (stereo not shown) [Example 24, C-Cyclopropyl-N-{2-[1-(3-fluoro-benzyl)-2,3,4,5-tetrahydro-1H-benzo[c]azepin-8-yloxy]-ethyl}-methanesulfonamide], the Ki was not above 100 nM.

`CCS(=O)(=O)NCCOc1ccc2c(c1)C(Cc1cccc(F)c1)NCCC2` (stereo not shown) [Example 25, Ethanesulfonic acid {2-[1-(3-fluoro-benzyl)-2,3,4,5-tetrahydro-1H-benzo[c]azepin-8-yloxy]-ethyl}-amide]: the Ki is not above 1000 nM.
